According to ChEMBL document CHEMBL3817738, “Perspectives on the Two-Pore Domain Potassium Channel TREK-1 (TWIK-Related K(+) Channel 1). A Novel Therapeutic Target?” (J Med Chem, 2016):

Assays:
[1] = molecular target: T1, Potassium channel subfamily K member 2 (Rattus norvegicus, UniProt Q920B6); experiment: Inhibition of rat TREK1 expressed in CHO cells assessed as reversible current depression; type: cell-based
T1 sequence (Q920B6 whole entry): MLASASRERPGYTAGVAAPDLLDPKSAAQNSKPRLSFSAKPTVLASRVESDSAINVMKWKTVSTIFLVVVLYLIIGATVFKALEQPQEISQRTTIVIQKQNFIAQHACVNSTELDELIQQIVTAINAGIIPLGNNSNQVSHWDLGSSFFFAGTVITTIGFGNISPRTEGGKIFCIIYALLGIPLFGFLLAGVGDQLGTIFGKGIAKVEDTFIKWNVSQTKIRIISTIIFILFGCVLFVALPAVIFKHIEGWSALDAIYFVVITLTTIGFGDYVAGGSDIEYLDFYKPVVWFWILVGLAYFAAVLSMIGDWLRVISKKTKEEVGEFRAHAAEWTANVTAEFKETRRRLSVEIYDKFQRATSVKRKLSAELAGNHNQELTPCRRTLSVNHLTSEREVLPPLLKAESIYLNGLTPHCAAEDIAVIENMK

[2] = molecular target: T2, Potassium channel subfamily K member 2 (Rattus norvegicus) (UniProt Q920B6); conditions: CHO, 10 uM
T2 sequence (whole entry): T1 sequence (Q920B6 whole entry)
Description: Inhibition of rat TREK1 expressed in CHO cells assessed as reversible current depression at 10 uM

[3] = molecular target: T3, Potassium channel subfamily K member 2 (Homo sapiens, UniProt O95069); experiment: Inhibition of human TREK1 expressed in HEK293 cells assessed as reduction in channel currents; type: cell-based
T3 sequence (O95069 whole entry): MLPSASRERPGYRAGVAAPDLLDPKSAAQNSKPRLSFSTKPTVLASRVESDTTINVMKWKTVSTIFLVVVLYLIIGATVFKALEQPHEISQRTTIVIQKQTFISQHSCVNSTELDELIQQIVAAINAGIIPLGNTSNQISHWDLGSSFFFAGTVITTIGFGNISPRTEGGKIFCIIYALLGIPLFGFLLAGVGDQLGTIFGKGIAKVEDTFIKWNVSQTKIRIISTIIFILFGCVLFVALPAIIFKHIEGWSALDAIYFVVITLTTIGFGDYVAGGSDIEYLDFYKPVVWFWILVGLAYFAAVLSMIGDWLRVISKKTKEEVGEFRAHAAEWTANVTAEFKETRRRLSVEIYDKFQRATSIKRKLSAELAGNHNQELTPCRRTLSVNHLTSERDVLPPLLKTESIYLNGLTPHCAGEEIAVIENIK

[4] = molecular target: T3, Potassium channel subfamily K member 2; experiment: Inhibition of human TREK1 expressed in oocytes assessed as reversible current depression; type: cell-based
[5] = molecular target: T4, Potassium channel subfamily K member 10 (Homo sapiens, UniProt P57789); experiment: Inhibition of TREK2 (unknown origin) expressed in oocytes assessed as reduction in channel currents; type: cell-based
T4 sequence (P57789 whole entry): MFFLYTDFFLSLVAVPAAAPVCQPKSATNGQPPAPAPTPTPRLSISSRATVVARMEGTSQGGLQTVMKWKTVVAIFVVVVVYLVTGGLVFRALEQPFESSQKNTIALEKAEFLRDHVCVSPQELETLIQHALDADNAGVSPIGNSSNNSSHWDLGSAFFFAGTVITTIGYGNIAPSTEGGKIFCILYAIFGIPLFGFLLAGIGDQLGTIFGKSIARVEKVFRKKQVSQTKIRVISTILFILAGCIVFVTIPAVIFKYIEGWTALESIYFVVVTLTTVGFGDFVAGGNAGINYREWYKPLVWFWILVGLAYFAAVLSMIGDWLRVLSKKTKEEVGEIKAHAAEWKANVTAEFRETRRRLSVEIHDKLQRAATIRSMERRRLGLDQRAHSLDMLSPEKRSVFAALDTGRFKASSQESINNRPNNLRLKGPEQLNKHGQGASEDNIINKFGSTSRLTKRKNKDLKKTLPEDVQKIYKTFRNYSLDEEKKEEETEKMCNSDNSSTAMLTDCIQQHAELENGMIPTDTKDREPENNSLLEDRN

[6] = molecular target: T4, Potassium channel subfamily K member 10; experiment: Inhibition of TREK2 (unknown origin) expressed in HEK293 cells assessed as reduction in channel currents; type: cell-based

IC50 [1] [µM]	inhibition [2] [%]	IC50 [3] [µM]	IC50 [4] [µM]	IC50 [5] [µM]	IC50 [6] [µM]	Compound
0.06	70	–	–	–	–	CCCC[C@@H]1OC(=O)c2ccccc21 [(3S)-BUTYLPHTHALIDE]
–	–	1.6	20.3	24	7.6	COc1ccccc1OCCNCC(O)COc1cccc2[nH]c3ccccc3c12 (stereo unspecified) [CARVEDILOL]
